From ChEMBL document CHEMBL1141260, “Biologically active indole alkaloids from Kopsia arborea” (J Nat Prod, 2007)
Values after ≈ are worked out from the molar mass of the structure shown.

Assays:
Assay type in all cases: functional, cell-based
KB = experiment: Cytotoxicity against vincristine-sensitive human KB cells
Jurkat = experiment: Cytotoxicity against human Jurkat cells
[1] = Cytotoxicity against vincristine-resistant human KB/VJ300 cells
[2] = Cytotoxicity against vincristine-resistant human KB/VJ300 cells in presence of 0.1 ug/mL vincristine

SMILES | IC50 (KB) | IC50 (Jurkat) | IC50 [1] | IC50 [2]
COC(=O)C1=C2Nc3ccccc3[C@]23CCN2CC[C@H]1[C@H]([C@H](C)OC)[C@@H]23 | > 25 µg/mL | > 25 µg/mL | > 25 µg/mL | 26.8 µM
COC(=O)C1=C2Nc3ccccc3[C@]23CCN2CC[C@H]1[C@H]([C@@H](C)OC)[C@@H]23 | > 25 µg/mL | > 25 µg/mL | > 25 µg/mL | 27.1 µM
CC[C@]12CCCNC13/C(=C\C(=O)OC)c1ccccc1N3C(=O)CC2 (some centres not stated) [ARBOLOSCINE] | 15 µg/mL (≈ 44.1 µM) |  | 11 µg/mL (≈ 32.3 µM) | 11.2 µM
C/C=C1/CN2CCc3c([nH]c4ccccc34)[C@H]2C[C@@H]1C(C)=O [ARBORICINE] | > 25 µg/mL | > 25 µg/mL | > 25 µg/mL | 36.7 µM
C/C=C1\[C@@H](C(C)=O)CCN2CCc3c([nH]c4ccccc34)[C@H]12 [ARBORICININE] | > 25 µg/mL | > 25 µg/mL | > 25 µg/mL | 31.3 µM
C=C1C2=Nc3ccccc3[C@@]23CCN2C/C(=C/C)[C@@H]1C[C@H]23 [VALPARICINE] | 3.6 µg/mL (≈ 13 µM) | 0.25 µg/mL (≈ 0.905 µM) | 0.75 µg/mL (≈ 2.71 µM) | 1.67 µM
CC[C@]12CCCN3CC[C@]4(C(=C(C(=O)OC)C1)Nc1ccccc14)[C@@H]32 [VINCADIFFORMINE] | 10.2 µg/mL (≈ 30.1 µM) | 21.8 µg/mL (≈ 64.4 µM) | 6.3 µg/mL (≈ 18.6 µM) | 13.3 µM
